Earlier results on 1 compound are cited in patent US20230405017A1, “METHODS OF USING RHO KINASE INHIBITORS TO TREAT FRONTOTEMPORAL DEMENTIA” (Woolsey Pharmaceuticals, Inc., priority 2020, published 2023).

For this data set the following is noted: in vivo; 1-hydroxy (M3) metabolite of fasudil.

Take `O=S(=O)(c1cccc2c(O)nccc12)N1CCCNCC1` [M3]: the half-life result is given as “about 8 hours”.
